From PubChem BioAssay AID1963845 (Molecular Pharmacology Branch, DTP, NCI, 2024)

Test system: 429239-143-T-J1-PDC complex spheroid viability
Test: Anticancer human tumor 429239-143-T-J1-PDC patient-derived small cell lung carcinoma cell line growth inhibition [POLQ]
Settings: for IC50: curve of first compound; for viability, T/C: stronger effect = lower value
Outline: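 Patient-derived tumour cells were co-cultured with HUVEC and mesenchymal stem cells as multicellular spheroids at 37 °C. They were treated with POLQ inhibitors (novobiocin, ART-558, RP6685) alone or combined with other agents. Top concentrations were at or near clinical Cmax (otherwise 10 microM; SN-38 at 1 microM), decreasing in half-log steps.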

[1] = second compound 0.0316 µM, first compound 0.0316 µM
[2] = second compound 0.0316 µM, first compound 0.1 µM
[3] = second compound 0.1 µM, first compound 0.0316 µM
[4] = second compound 0.1 µM, first compound 0.1 µM
[5] = second compound 0.316 µM, first compound 0.0316 µM
[6] = second compound 0.316 µM, first compound 0.1 µM
[7] = second compound 1 µM, first compound 0.0316 µM
[8] = second compound 1 µM, first compound 0.1 µM
[9] = second compound 3.16 µM, first compound 0.0316 µM
[10] = second compound 3.16 µM, first compound 0.1 µM
[11] = second compound 10 µM, first compound 0.0316 µM
[12] = second compound 10 µM, first compound 0.1 µM
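Also: luminescence signal used as surrogate measure of viable cells; spheroids exposed to compounds for seven days before readout.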
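For viability, T/C in this document: 100% = DMSO vehicle control viability as luminescence relative to vehicle.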

O=c1[nH]cc(F)c(=O)[nH]1 + Nc1ccc(C#CCN(C(=O)Cc2ncc(C(F)(F)F)cc2C(F)(F)F)c2ccc(F)cc2)nn1
IC50 (second compound 0.0316 µM): 3240 nM
IC50 (second compound 0.1 µM): 3290 nM
IC50 (second compound 0.316 µM): 4050 nM
IC50 (second compound 1 µM): 4130 nM
IC50 (second compound 3.16 µM): 2530 nM
IC50 (second compound 10 µM): 3170 nM
viability, T/C [1]: 98.3%
viability, T/C [2]: 105%
viability, T/C (second compound 0.0316 µM, first compound 0.316 µM): 96.6%
viability, T/C (second compound 0.0316 µM, first compound 1 µM): 80.8%
viability, T/C (second compound 0.0316 µM, first compound 3.16 µM): 50.7%
viability, T/C (second compound 0.0316 µM, first compound 10 µM): 31.6%
viability, T/C [3]: 107%
viability, T/C [4]: 105%
viability, T/C (second compound 0.1 µM, first compound 0.316 µM): 104%
viability, T/C (second compound 0.1 µM, first compound 1 µM): 81%
viability, T/C (second compound 0.1 µM, first compound 3.16 µM): 51.5%
viability, T/C (second compound 0.1 µM, first compound 10 µM): 35.2%
viability, T/C [5]: 100%
viability, T/C [6]: 110%
viability, T/C (second compound 0.316 µM, first compound 0.316 µM): 104%
viability, T/C (second compound 0.316 µM, first compound 1 µM): 82.8%
viability, T/C (second compound 0.316 µM, first compound 3.16 µM): 56.7%
viability, T/C (second compound 0.316 µM, first compound 10 µM): 30.7%
viability, T/C [7]: 115%
viability, T/C [8]: 99.7%
viability, T/C (second compound 1 µM, first compound 0.316 µM): 105%
viability, T/C (second compound 1 µM, first compound 1 µM): 77.9%
viability, T/C (second compound 1 µM, first compound 3.16 µM): 56.3%
viability, T/C (second compound 1 µM, first compound 10 µM): 31.5%
viability, T/C [9]: 98.1%
viability, T/C [10]: 105%
viability, T/C (second compound 3.16 µM, first compound 0.316 µM): 102%
viability, T/C (second compound 3.16 µM, first compound 1 µM): 80.2%
viability, T/C (second compound 3.16 µM, first compound 3.16 µM): 43.3%
viability, T/C (second compound 3.16 µM, first compound 10 µM): 32.1%
viability, T/C [11]: 104%
viability, T/C [12]: 97.6%
viability, T/C (second compound 10 µM, first compound 0.316 µM): 106%
viability, T/C (second compound 10 µM, first compound 1 µM): 83.1%
viability, T/C (second compound 10 µM, first compound 3.16 µM): 51.1%
viability, T/C (second compound 10 µM, first compound 10 µM): 34.1%

CC(=O)O[C@H]1C(=O)[C@@]2(C)[C@H]([C@H](OC(=O)c3ccccc3)[C@]3(O)C[C@H](OC(=O)[C@H](O)[C@@H](NC(=O)c4ccccc4)c4ccccc4)C(C)=C1C3(C)C)[C@]1(OC(C)=O)CO[C@@H]1C[C@@H]2O + Cc1cccc(N(C)C(=O)C2C(O)CCN2c2nc(C)cc(C(F)(F)F)c2C#N)c1
IC50 (second compound 0.0316 µM): 13.4 nM
IC50 (second compound 0.1 µM): 12.9 nM
IC50 (second compound 0.316 µM): 11.6 nM
IC50 (second compound 1 µM): 14.2 nM
IC50 (second compound 3.16 µM): 13.2 nM
IC50 (second compound 10 µM): 12.5 nM
viability, T/C (second compound 0.0316 µM, first compound 0.00949 µM): 63.2%
viability, T/C (second compound 0.0316 µM, first compound 0.03 µM): 14.9%
viability, T/C (second compound 0.0316 µM, first compound 0.0949 µM): 11.6%
viability, T/C (second compound 0.0316 µM, first compound 0.3 µM): 19.4%
viability, T/C (second compound 0.0316 µM, first compound 0.949 µM): 24.7%
viability, T/C (second compound 0.0316 µM, first compound 3 µM): 27.8%
viability, T/C (second compound 0.1 µM, first compound 0.00949 µM): 60.9%
viability, T/C (second compound 0.1 µM, first compound 0.03 µM): 15.6%
viability, T/C (second compound 0.1 µM, first compound 0.0949 µM): 18.6%
viability, T/C (second compound 0.1 µM, first compound 0.3 µM): 18.5%
viability, T/C (second compound 0.1 µM, first compound 0.949 µM): 23%
viability, T/C (second compound 0.1 µM, first compound 3 µM): 24.6%
viability, T/C (second compound 0.316 µM, first compound 0.00949 µM): 56.6%
viability, T/C (second compound 0.316 µM, first compound 0.03 µM): 17.8%
viability, T/C (second compound 0.316 µM, first compound 0.0949 µM): 12.7%
viability, T/C (second compound 0.316 µM, first compound 0.3 µM): 16.9%
viability, T/C (second compound 0.316 µM, first compound 0.949 µM): 18.8%
viability, T/C (second compound 0.316 µM, first compound 3 µM): 23.9%
viability, T/C (second compound 1 µM, first compound 0.00949 µM): 66.5%
viability, T/C (second compound 1 µM, first compound 0.03 µM): 14.6%
viability, T/C (second compound 1 µM, first compound 0.0949 µM): 17.8%
viability, T/C (second compound 1 µM, first compound 0.3 µM): 17.1%
viability, T/C (second compound 1 µM, first compound 0.949 µM): 22.7%
viability, T/C (second compound 1 µM, first compound 3 µM): 24.7%
viability, T/C (second compound 3.16 µM, first compound 0.00949 µM): 62.5%
viability, T/C (second compound 3.16 µM, first compound 0.03 µM): 17%
viability, T/C (second compound 3.16 µM, first compound 0.0949 µM): 14.6%
viability, T/C (second compound 3.16 µM, first compound 0.3 µM): 17.2%
viability, T/C (second compound 3.16 µM, first compound 0.949 µM): 21.7%
viability, T/C (second compound 3.16 µM, first compound 3 µM): 25.1%
viability, T/C (second compound 10 µM, first compound 0.00949 µM): 61.2%
viability, T/C (second compound 10 µM, first compound 0.03 µM): 12.5%
viability, T/C (second compound 10 µM, first compound 0.0949 µM): 17.8%
viability, T/C (second compound 10 µM, first compound 0.3 µM): 14.6%
viability, T/C (second compound 10 µM, first compound 0.949 µM): 18%
viability, T/C (second compound 10 µM, first compound 3 µM): 16%

Cn1ncnc1[C@H]1c2n[nH]c(=O)c3cc(F)cc(c23)N[C@@H]1c1ccc(F)cc1 + Nc1ccc(C#CCN(C(=O)Cc2ncc(C(F)(F)F)cc2C(F)(F)F)c2ccc(F)cc2)nn1
IC50 (second compound 0.0316 µM): > 100 nM
IC50 (second compound 0.1 µM): > 100 nM
IC50 (second compound 0.316 µM): > 100 nM
IC50 (second compound 1 µM): > 100 nM
IC50 (second compound 3.16 µM): > 100 nM
IC50 (second compound 10 µM): > 100 nM
viability, T/C (second compound 0.0316 µM, first compound 0.000316 µM): 101%
viability, T/C (second compound 0.0316 µM, first compound 0.001 µM): 104%
viability, T/C (second compound 0.0316 µM, first compound 0.00316 µM): 89.8%
viability, T/C (second compound 0.0316 µM, first compound 0.01 µM): 83.4%
viability, T/C [1]: 83.1%
viability, T/C [2]: 60.8%
viability, T/C (second compound 0.1 µM, first compound 0.000316 µM): 101%
viability, T/C (second compound 0.1 µM, first compound 0.001 µM): 104%
viability, T/C (second compound 0.1 µM, first compound 0.00316 µM): 95.3%
viability, T/C (second compound 0.1 µM, first compound 0.01 µM): 83.1%
viability, T/C [3]: 84.7%
viability, T/C [4]: 60.4%
viability, T/C (second compound 0.316 µM, first compound 0.000316 µM): 104%
viability, T/C (second compound 0.316 µM, first compound 0.001 µM): 101%
viability, T/C (second compound 0.316 µM, first compound 0.00316 µM): 93.7%
viability, T/C (second compound 0.316 µM, first compound 0.01 µM): 83.8%
viability, T/C [5]: 79.8%
viability, T/C [6]: 67.1%
viability, T/C (second compound 1 µM, first compound 0.000316 µM): 111%
viability, T/C (second compound 1 µM, first compound 0.001 µM): 112%
viability, T/C (second compound 1 µM, first compound 0.00316 µM): 95.1%
viability, T/C (second compound 1 µM, first compound 0.01 µM): 87.8%
viability, T/C [7]: 81.7%
viability, T/C [8]: 58%
viability, T/C (second compound 3.16 µM, first compound 0.000316 µM): 106%
viability, T/C (second compound 3.16 µM, first compound 0.001 µM): 91.4%
viability, T/C (second compound 3.16 µM, first compound 0.00316 µM): 94.2%
viability, T/C (second compound 3.16 µM, first compound 0.01 µM): 95.2%
viability, T/C [9]: 75.8%
viability, T/C [10]: 69.8%
viability, T/C (second compound 10 µM, first compound 0.000316 µM): 108%
viability, T/C (second compound 10 µM, first compound 0.001 µM): 91.7%
viability, T/C (second compound 10 µM, first compound 0.00316 µM): 101%
viability, T/C (second compound 10 µM, first compound 0.01 µM): 87.9%
viability, T/C [11]: 74.2%
viability, T/C [12]: 60.2%
